ChEMBL document CHEMBL1201862, “PubChem BioAssay data set” (2004)
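Method: 48-hour compound exposure of cells in 96-well plates, five concentrations, linear interpolation of endpoints. GI50 marks 50% less growth.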 The source made the active and inactive calls. Cut-off read from the data, not from the text of the source: active = GI50 up to about 1.1 µM and inactive = higher.

How the values were obtained:
Experiment in all cases: NCI tumour cell line growth inhibition, 48 h
786-0 = tested on: 786-0
A498 = tested on: A498
A549 = tested on: A549
ACHN = tested on: ACHN
CAKI-1 = tested on: CAKI-1
CCRF-CEM = tested on: CCRF-CEM
COLO 205 = tested on: COLO 205
DLD-1 = tested on: DLD-1
DMS-114 = tested on: DMS-114
DMS-273 = tested on: DMS-273
EKVX = tested on: EKVX
HCC 2998 = tested on: HCC 2998
HCT-116 = tested on: HCT-116
HL-60 = tested on: HL-60
HOP-18 = tested on: HOP-18
HOP-62 = tested on: HOP-62
HOP-92 = tested on: HOP-92
HT-29 = tested on: HT-29
IGROV-1 = tested on: IGROV-1
K562 = tested on: K562
KM-20L2 = tested on: KM-20L2
KM12 = tested on: KM12
LOX IMVI = tested on: LOX IMVI
LXFL 529 = tested on: LXFL 529
M14 = tested on: M14
M19-MEL = tested on: M19-MEL
MOLT-4 = tested on: MOLT-4
Malme-3M = tested on: Malme-3M
NCI-H226 = tested on: NCI-H226
NCI-H23 = tested on: NCI-H23
NCI-H460 = tested on: NCI-H460
NCI-H522 = tested on: NCI-H522
OVCAR-3 = tested on: OVCAR-3
OVCAR-4 = tested on: OVCAR-4
OVCAR-5 = tested on: OVCAR-5
OVCAR-8 = tested on: OVCAR-8
RPMI-8226 = tested on: RPMI-8226
RXF 393 = tested on: RXF 393
SF-268 = tested on: SF-268
SF-295 = tested on: SF-295
SF-539 = tested on: SF-539
SK-MEL-28 = tested on: SK-MEL-28
SK-OV-3 = tested on: SK-OV-3
SN12C = tested on: SN12C
SNB-19 = tested on: SNB-19
SNB-75 = tested on: SNB-75
SNB-78 = tested on: SNB-78
SR = tested on: SR
SW-620 = tested on: SW-620
TK-10 = tested on: TK-10
U-251 = tested on: U-251
UACC-257 = tested on: UACC-257
UACC-62 = tested on: UACC-62
UO-31 = tested on: UO-31
XF498 = tested on: XF498
HCT-15 = tested on: HCT-15
RXF 631 = tested on: RXF 631
SK-MEL-2 = tested on: SK-MEL-2
SK-MEL-5 = tested on: SK-MEL-5

Structure (SMILES): COC(=O)/C(=C1\OC(=O)C(c2ccc(Cl)cc2)=C1O)c1ccc(Cl)cc1
- GI50 (786-0): 36.1 µM (inactive)
- GI50 (A498): 16.9 µM (inactive)
- GI50 (A549): 24.8 µM (inactive)
- GI50 (ACHN): 23.2 µM (inactive)
- GI50 (CAKI-1): 23 µM (inactive)
- GI50 (CCRF-CEM): 24.2 µM (inactive)
- GI50 (COLO 205): 18.9 µM (inactive)
- GI50 (DLD-1): 29.4 µM (inactive)
- GI50 (DMS-114): 15.8 µM (inactive)
- GI50 (DMS-273): 13.2 µM (inactive)
- GI50 (EKVX): 23.7 µM (inactive)
- GI50 (HCC 2998): 28.7 µM (inactive)
- GI50 (HCT-116): 19.8 µM (inactive)
- GI50 (HL-60): 7.6 µM (inactive)
- GI50 (HOP-18): 21 µM (inactive)
- GI50 (HOP-62): 17.7 µM (inactive)
- GI50 (HOP-92): 17.8 µM (inactive)
- GI50 (HT-29): 30 µM (inactive)
- GI50 (IGROV-1): 52 µM (inactive)
- GI50 (K562): 27 µM (inactive)
- GI50 (KM-20L2): 28.6 µM (inactive)
- GI50 (KM12): 23.8 µM (inactive)
- GI50 (LOX IMVI): 21.3 µM (inactive)
- GI50 (LXFL 529): 26.6 µM (inactive)
- GI50 (M14): 31.2 µM (inactive)
- GI50 (M19-MEL): 22.1 µM (inactive)
- GI50 (MOLT-4): 22.5 µM (inactive)
- GI50 (Malme-3M): 16.2 µM (inactive)
- GI50 (NCI-H226): 21.8 µM (inactive)
- GI50 (NCI-H23): 16 µM (inactive)
- GI50 (NCI-H460): 26.1 µM (inactive)
- GI50 (NCI-H522): 17.2 µM (inactive)
- GI50 (OVCAR-3): 27.8 µM (inactive)
- GI50 (OVCAR-4): 9.71 µM (inactive)
- GI50 (OVCAR-5): 31.5 µM (inactive)
- GI50 (OVCAR-8): 31.7 µM (inactive)
- GI50 (RPMI-8226): 19.6 µM (inactive)
- GI50 (RXF 393): 21.5 µM (inactive)
- GI50 (SF-268): 22.3 µM (inactive)
- GI50 (SF-295): 19.2 µM (inactive)
- GI50 (SF-539): 23.4 µM (inactive)
- GI50 (SK-MEL-28): 31 µM (inactive)
- GI50 (SK-OV-3): 28.8 µM (inactive)
- GI50 (SN12C): 30.5 µM (inactive)
- GI50 (SNB-19): 27.7 µM (inactive)
- GI50 (SNB-75): 22.8 µM (inactive)
- GI50 (SNB-78): 26.4 µM (inactive)
- GI50 (SR): 25.8 µM (inactive)
- GI50 (SW-620): 35.7 µM (inactive)
- GI50 (TK-10): 31 µM (inactive)
- GI50 (U-251): 24.3 µM (inactive)
- GI50 (UACC-257): 16.5 µM (inactive)
- GI50 (UACC-62): 17.9 µM (inactive)
- GI50 (UO-31): 28.7 µM (inactive)
- GI50 (XF498): 16.9 µM (inactive)

Structure (SMILES): Cc1ccccc1NC(=O)C(=O)C(c1cnc2ccc([N+](=O)[O-])cc2n1)[N+](=O)[O-] (stereo unspecified)
- GI50 (786-0): > 100 µM (inactive)
- GI50 (A498): > 100 µM (inactive)
- GI50 (A549): > 100 µM (inactive)
- GI50 (ACHN): > 100 µM (inactive)
- GI50 (CAKI-1): > 100 µM (inactive)
- GI50 (CCRF-CEM): 25.5 µM (inactive)
- GI50 (COLO 205): > 100 µM (inactive)
- GI50 (DLD-1): > 100 µM (inactive)
- GI50 (DMS-114): 43 µM (inactive)
- GI50 (DMS-273): 44.5 µM (inactive)
- GI50 (EKVX): > 100 µM (inactive)
- GI50 (HCC 2998): > 100 µM (inactive)
- GI50 (HCT-116): > 100 µM (inactive)
- GI50 (HCT-15): > 100 µM
- GI50 (HL-60): 24.9 µM (inactive)
- GI50 (HOP-18): > 100 µM (inactive)
- GI50 (HOP-62): > 100 µM (inactive)
- GI50 (HOP-92): > 100 µM (inactive)
- GI50 (HT-29): > 100 µM (inactive)
- GI50 (IGROV-1): > 100 µM (inactive)
- GI50 (K562): 39.1 µM (inactive)
- GI50 (KM-20L2): > 100 µM (inactive)
- GI50 (KM12): > 100 µM (inactive)
- GI50 (LOX IMVI): > 100 µM (inactive)
- GI50 (M14): > 100 µM (inactive)
- GI50 (M19-MEL): 83 µM (inactive)
- GI50 (MOLT-4): 66.1 µM (inactive)
- GI50 (Malme-3M): > 100 µM (inactive)
- GI50 (NCI-H226): > 100 µM (inactive)
- GI50 (NCI-H23): > 100 µM (inactive)
- GI50 (NCI-H460): > 100 µM (inactive)
- GI50 (NCI-H522): 27.4 µM (inactive)
- GI50 (OVCAR-4): > 100 µM (inactive)
- GI50 (OVCAR-5): > 100 µM (inactive)
- GI50 (OVCAR-8): > 100 µM (inactive)
- GI50 (RPMI-8226): 31.7 µM (inactive)
- GI50 (RXF 393): > 100 µM (inactive)
- GI50 (RXF 631): 70.3 µM (inactive)
- GI50 (SF-268): > 100 µM (inactive)
- GI50 (SF-295): > 100 µM (inactive)
- GI50 (SF-539): > 100 µM (inactive)
- GI50 (SK-MEL-28): > 100 µM (inactive)
- GI50 (SK-MEL-2): > 100 µM (inactive)
- GI50 (SK-MEL-5): 87.3 µM (inactive)
- GI50 (SK-OV-3): > 100 µM (inactive)
- GI50 (SN12C): > 100 µM (inactive)
- GI50 (SNB-19): > 100 µM (inactive)
- GI50 (SNB-75): > 100 µM (inactive)
- GI50 (SNB-78): > 100 µM (inactive)
- GI50 (SR): > 100 µM (inactive)
- GI50 (SW-620): > 100 µM (inactive)
- GI50 (TK-10): > 100 µM (inactive)
- GI50 (U-251): > 100 µM (inactive)
- GI50 (UACC-257): > 100 µM (inactive)
- GI50 (UACC-62): 51.5 µM (inactive)
- GI50 (UO-31): 54 µM (inactive)
